Measured values from the supplement of paper PMC11451515.

What was measured:
Assay in all cases: AUC of viability dose-response curve (% viability x log10 dose units); higher = less sensitive
Settings in all cases: 48 h
NOMO1 = test system: NOMO1
Summary of the method: (§1)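 Leukemia cells adapted to each medium were seeded in 1536-well plates (500 or 1000 cells/well). They were dosed with library compounds in DMSO at 11 threefold doses, 47 μM to 0.79 nM, for 48 h at 37°C. CellTiter-Glo One luminescence was normalised per plate to DMSO and cell-free wells. Area under the curve was integrated by trapezoidal rule over log10 doses on a four-parameter log-logistic fit; curves exceeding full viability were scaled and curves failing quality control removed.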

P12-Ichikawa = test system: P12-Ichikawa
Summary of the method: as §1

SEM cells = test system: SEM cells
Summary of the method: as §1

[1] = RPMI 5 mM glucose + 10% dialyzed FBS

NC1=C(Cl)C(=CC=N1)OC2=C(F)C=C(NC(=O)\C3=C\N\C=C(C3=O)\C4=CC=C(F)C=C4)C=C2
AUC of viability dose-response curve (NOMO1; HPLM + 10% dialyzed FBS): 441 | AUC of viability dose-response curve (NOMO1; RPMI 5 mM glucose + 10% FBS): 452 | AUC of viability dose-response curve (NOMO1; [1]): 453 | AUC of viability dose-response curve (P12-Ichikawa; HPLM + 10% dialyzed FBS): 451 | AUC of viability dose-response curve (P12-Ichikawa; RPMI 5 mM glucose + 10% FBS): 448 | AUC of viability dose-response curve (P12-Ichikawa; [1]): 447 | AUC of viability dose-response curve (SEM cells; HPLM + 10% dialyzed FBS): 312 | AUC of viability dose-response curve (SEM cells; RPMI 5 mM glucose + 10% FBS): 287 | AUC of viability dose-response curve (SEM cells; [1]): 247
